One molecule from patent publication US20210009542A1 (Calico Life Sciences LLC, priority 2018, published 2021) can be followed below.

The structures appear in SMILES notation.

The subject of test [1] is Granzyme B+ cells within CD8+ T cells. Kind of test: Granzyme B staining of CD8 T cells flow cytometry assay in mouse spleen. It is filed as in vivo. To be noted: 300 mg/kg/dose oral BID; day 8 of dosing, 2 hours post 16th dose. (In general: In flow cytometry, cells or beads pass a laser one at a time.)
Experimental: Mice were sacrificed on day 8 of dosing with indicated PTPN2/1B inhibitor (2 hours after the 16th dose) and spleens were excised. Spleens were dissociated with a gentleMACS dissociator (Miltenyi Biotec, Bergisch Gladbach, Germany), red blood cells lysed, and single cell suspensions were prepared. Splenocytes were stained with Zombie UV™ Fixable Viability kit (Biolegend, San Diego, Calif.) diluted in Dulbecco's PBS for 10 minutes at room temperature to exclude dead cells followed by staining for surface markers for 45 minutes on ice using the following flow cytometry antibodies diluted in autoMACS Running Buffer (Miltenyi Biotec, Bergisch Gladbach, Germany): Brilliant Violet 510-labeled anti-CD45, Brilliant Ultraviolet 395-labeled anti-CD3, Brilliant Violet 786-labeled anti-CD4, APC/Cy7-labeled anti-CD8. […] After staining, cells were washed twice with autoMACS Running Buffer, and the samples were acquired on a BD LSRFortessa™ X20 flow cytometers (BD Biosciences, San Jose, Calif.) and analyzed with FLowJo V10 software (FlowJo, Ashland, Oreg.). […]
Test [2] relates to IP10. Briefly: Cytokine measurement in mouse plasma (IP10). Type of test: in vivo. To be noted: 300 mg/kg/dose oral BID; day 8 of dosing, 2 hours post 16th dose. On the procedure: Whole blood was drawn into sodium heparin by cardiac puncture from mice on day 8 of dosing with indicated PTPN2/1B inhibitor (2 hours after the 16th dose) and plasma was prepared by centrifugation. Cytokines in plasma were measured using the Th1/Th2 Cytokine & Chemokine 20-Plex Mouse ProcartaPlex™ Panel 1 (Invitrogen, Carlsbad, Calif.). IP10 levels were expressed as fold-changes over the vehicle control animal group.

Take `COc1ccc2cc(O)c(N3CC(=O)NS3(=O)=O)c(F)c2c1` [Compound 124, 5-(1-fluoro-3-hydroxy-7-methoxynaphthalen-2-yl)-1λ^6,2,5-thiadiazolidine-1,1,3-trione]: in test [1], the “% GzB+ cells within splenic CD8+ T cells [fold change over vehicle]” value came out at 2.9 fold. Further, in test [2], the “IP10 in plasma [fold increase over vehicle]” value was 2.5 fold.
